According to ChEMBL document CHEMBL3885881, “DrugMatrix”:

Organism: Rattus norvegicus
Experiment: DrugMatrix - Regimen: Daily Repeat
Assay type: toxicity, organism-based, Sprague-Dawley
Design: regimen Daily Repeat, gender Male, age 6-8 weeks
Conditions: in vivo, sc, route subcutaneous, […]; for ABSOLUTE BASOPHIL / ABSOLUTE EOSINOPHIL / ABSOLUTE LYMPHOCYTE / ABSOLUTE MONOCYTE / ABSOLUTE SEGMENTED NEUTROPHIL / BASOPHIL / EOSINOPHIL / ERYTHROCYTE COUNT / HEMATOCRIT / HEMOGLOBIN / LEUKOCYTE COUNT / LYMPHOCYTE / MEAN CORPUSCULAR HEMOGLOBIN / MEAN CORPUSCULAR HEMOGLOBIN CONCENTRATION / MEAN CORPUSCULAR VOLUME / MONOCYTE / NEUTROPHIL / NUCLEATED RED BLOOD CELLS / PLATELET COUNT: tissue Blood; for ALANINE AMINOTRANSFERASE / ALBUMIN / ALKALINE PHOSPHATASE / ASPARTATE AMINOTRANSFERASE / BLOOD UREA NITROGEN / CARBON DIOXIDE / CHLORIDE / CHOLESTEROL / CREATINE PHOSPHOKINASE / CREATININE / GLUCOSE / LACTATE DEHYDROGENASE / LIPASE / PHOSPHORUS / POTASSIUM / SODIUM / TOTAL BILIRUBIN / TOTAL PROTEIN / URIC ACID: tissue Plasma
[1] = 0 mg/kg, 72 h, dose level Control, time 3 day
[2] = 0 mg/kg, 120 h, dose level Control, time 5 day
[3] = 56 mg/kg, 72 h, dose level High, time 3 day

Structure (SMILES): C[C@]12CCC(=O)C=C1CC[C@@H]1[C@@H]2[C@@H](O)C[C@@]2(C)[C@H]1CC[C@]2(O)C(=O)CO [HYDROCORTISONE]
- ABSOLUTE BASOPHIL [1]: 0 CELLS/uL
- ABSOLUTE EOSINOPHIL [1]: 0 CELLS/uL
- ABSOLUTE LYMPHOCYTE [1]: 10887 CELLS/uL
- ABSOLUTE MONOCYTE [1]: 56 CELLS/uL
- ABSOLUTE SEGMENTED NEUTROPHIL [1]: 1057 CELLS/uL
- BASOPHIL [1]: 0%
- EOSINOPHIL [1]: 0%
- ERYTHROCYTE COUNT [1]: 5.31 x10E6/uL
- HEMATOCRIT [1]: 33.78%
- HEMOGLOBIN [1]: 13.4 G/DL
- LEUKOCYTE COUNT [1]: 12 x10E3/uL
- LYMPHOCYTE [1]: 91.17%
- MEAN CORPUSCULAR HEMOGLOBIN [1]: 25.25 pg
- MEAN CORPUSCULAR HEMOGLOBIN CONCENTRATION [1]: 39.65 G/DL
- MEAN CORPUSCULAR VOLUME [1]: 63.65 fL
- MONOCYTE [1]: 0.5%
- NEUTROPHIL [1]: 8.33%
- NUCLEATED RED BLOOD CELLS [1]: 0 /100WBC
- PLATELET COUNT [1]: 1142 x10E3/uL
- ALANINE AMINOTRANSFERASE [1]: 57.17 u/L
- ALBUMIN [1]: 4.28 G/DL
- ALKALINE PHOSPHATASE [1]: 425.83 u/L
- ASPARTATE AMINOTRANSFERASE [1]: 93.83 u/L
- BLOOD UREA NITROGEN [1]: 14.17 mg/dL
- CARBON DIOXIDE [1]: 33.5 mmol/L
- CHLORIDE [1]: 100 MEQ/L
- CHOLESTEROL [1]: 70.33 mg/dL
- CREATINE PHOSPHOKINASE [1]: 438.67 u/L
- CREATININE [1]: 0.19 mg/dL
- GLUCOSE [1]: 138.5 mg/dL
- LACTATE DEHYDROGENASE [1]: 190.17 u/L
- LIPASE [1]: 9.83 u/L
- PHOSPHORUS [1]: 11.05 mg/dL
- POTASSIUM [1]: 6.59 MEQ/L
- SODIUM [1]: 143.58 MEQ/L
- TOTAL BILIRUBIN [1]: 0.22 mg/dL
- TOTAL PROTEIN [1]: 6.15 G/DL
- URIC ACID [1]: 1.3 mg/dL
- ABSOLUTE BASOPHIL [2]: 0 CELLS/uL
- ABSOLUTE EOSINOPHIL [2]: 91.17 CELLS/uL
- ABSOLUTE LYMPHOCYTE [2]: 11847.67 CELLS/uL
- ABSOLUTE MONOCYTE [2]: 172.83 CELLS/uL
- ABSOLUTE SEGMENTED NEUTROPHIL [2]: 1105 CELLS/uL
- BASOPHIL [2]: 0%
- EOSINOPHIL [2]: 0.67%
- ERYTHROCYTE COUNT [2]: 5.35 x10E6/uL
- HEMATOCRIT [2]: 33.65%
- HEMOGLOBIN [2]: 13.42 G/DL
- LEUKOCYTE COUNT [2]: 13.22 x10E3/uL
- LYMPHOCYTE [2]: 89.83%
- MEAN CORPUSCULAR HEMOGLOBIN [2]: 25.12 pg
- MEAN CORPUSCULAR HEMOGLOBIN CONCENTRATION [2]: 39.9 G/DL
- MEAN CORPUSCULAR VOLUME [2]: 63 fL
- MONOCYTE [2]: 1.33%
- NEUTROPHIL [2]: 8.17%
- NUCLEATED RED BLOOD CELLS [2]: 0 /100WBC
- PLATELET COUNT [2]: 1347.83 x10E3/uL
- ALANINE AMINOTRANSFERASE [2]: 50 u/L
- ALBUMIN [2]: 4.1 G/DL
- ALKALINE PHOSPHATASE [2]: 329.17 u/L
- ASPARTATE AMINOTRANSFERASE [2]: 77.17 u/L
- BLOOD UREA NITROGEN [2]: 16.83 mg/dL
- CARBON DIOXIDE [2]: 34.83 mmol/L
- CHLORIDE [2]: 99.83 MEQ/L
- CHOLESTEROL [2]: 75.67 mg/dL
- CREATINE PHOSPHOKINASE [2]: 295.83 u/L
- CREATININE [2]: 0.18 mg/dL
- GLUCOSE [2]: 156.33 mg/dL
- LACTATE DEHYDROGENASE [2]: 166.83 u/L
- LIPASE [2]: 9.83 u/L
- PHOSPHORUS [2]: 12.18 mg/dL
- POTASSIUM [2]: 6.69 MEQ/L
- SODIUM [2]: 143.97 MEQ/L
- TOTAL BILIRUBIN [2]: 0.22 mg/dL
- TOTAL PROTEIN [2]: 6.05 G/DL
- URIC ACID [2]: 1.6 mg/dL
- ABSOLUTE BASOPHIL [3]: 0 CELLS/uL
- ABSOLUTE EOSINOPHIL [3]: 0 CELLS/uL
- ABSOLUTE LYMPHOCYTE [3]: 1706 CELLS/uL
- ABSOLUTE MONOCYTE [3]: 103.33 CELLS/uL
- ABSOLUTE SEGMENTED NEUTROPHIL [3]: 3357.33 CELLS/uL
- BASOPHIL [3]: 0%
- EOSINOPHIL [3]: 0%
- ERYTHROCYTE COUNT [3]: 5.79 x10E6/uL
- HEMATOCRIT [3]: 37.97%
- HEMOGLOBIN [3]: 14.73 G/DL
- LEUKOCYTE COUNT [3]: 5.17 x10E3/uL
- LYMPHOCYTE [3]: 33.33%
- MEAN CORPUSCULAR HEMOGLOBIN [3]: 25.47 pg
- MEAN CORPUSCULAR HEMOGLOBIN CONCENTRATION [3]: 38.87 G/DL
- MEAN CORPUSCULAR VOLUME [3]: 65.57 fL
- MONOCYTE [3]: 2%
- NEUTROPHIL [3]: 64.67%
- NUCLEATED RED BLOOD CELLS [3]: 0.33 /100WBC
- PLATELET COUNT [3]: 1157.67 x10E3/uL
- ALANINE AMINOTRANSFERASE [3]: 124.33 u/L
- ALBUMIN [3]: 5.07 G/DL
- ALKALINE PHOSPHATASE [3]: 509.67 u/L
- ASPARTATE AMINOTRANSFERASE [3]: 177.33 u/L
- BLOOD UREA NITROGEN [3]: 13.67 mg/dL
- CARBON DIOXIDE [3]: 29 mmol/L
- CHLORIDE [3]: 99 MEQ/L
- CHOLESTEROL [3]: 119.33 mg/dL
- CREATINE PHOSPHOKINASE [3]: 250.33 u/L
- CREATININE [3]: 0.17 mg/dL
- GLUCOSE [3]: 360 mg/dL
- LACTATE DEHYDROGENASE [3]: 443.67 u/L
- LIPASE [3]: 10.67 u/L
- PHOSPHORUS [3]: 10.63 mg/dL
- POTASSIUM [3]: 5.68 MEQ/L
- SODIUM [3]: 144.93 MEQ/L
- TOTAL BILIRUBIN [3]: 0.17 mg/dL
- TOTAL PROTEIN [3]: 6.97 G/DL
- URIC ACID [3]: 1.43 mg/dL
